The structures appear in SMILES notation.

This test addresses T1, full length SGK1 (Homo sapiens, UniProt O00141).
T1 construct: 125 μM full length SGK1 (Life Technologies Part #PR7358A); purchased Life Technologies PR7358A
T1 sequence (O00141 1-431): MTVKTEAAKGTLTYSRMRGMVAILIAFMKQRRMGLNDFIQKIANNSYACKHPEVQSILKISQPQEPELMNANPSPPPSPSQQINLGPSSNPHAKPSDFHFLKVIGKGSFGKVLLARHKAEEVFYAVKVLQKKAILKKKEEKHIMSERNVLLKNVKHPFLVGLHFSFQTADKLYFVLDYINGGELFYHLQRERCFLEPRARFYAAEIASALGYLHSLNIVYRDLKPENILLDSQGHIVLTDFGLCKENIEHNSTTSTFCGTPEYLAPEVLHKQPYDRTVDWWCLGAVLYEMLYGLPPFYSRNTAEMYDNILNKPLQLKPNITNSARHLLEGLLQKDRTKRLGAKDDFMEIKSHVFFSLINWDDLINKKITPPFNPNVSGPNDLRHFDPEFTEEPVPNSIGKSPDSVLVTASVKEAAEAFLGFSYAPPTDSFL
Nature of the test: SGK1 inhibition Assay A (Caliper LabChip electrophoretic separation of fluorescent peptide substrate and phosphorylated product). The class given is biochemical. The following applies: Assay A; 20 μM ATP, 40 min incubation; read-out: SGK1 IC50.

Turning to `Cc1cc(-c2cc(N3CCC[C@@H](NC(=O)c4sc(Cl)cc4OCCN(C)C)C3)c3c(N)ncnn23)cc(C(F)F)n1` [Example 277, (R)-N-(1-(4-amino-7-(2-(difluoromethyl)-6-methylpyridin-4-yl)pyrrolo[2,1-f][1,2,4]triazin-5-yl)piperidin-3-yl)-5-chloro-3-(2-(dimethylamino)ethoxy) thiophene-2-carboxamide], the IC50 came out at 10 nM.

In the case of `CN(C)CCOc1cc(Cl)sc1C(=O)N[C@@H]1CCCN(c2cc(-c3ccc(C#N)nc3)n3ncnc(N)c23)C1` [Example 278, (R)-N-(1-(4-amino-7-(6-cyanopyridin-3-yl)pyrrolo[2,1-f][1,2,4]triazin-5-yl)piperidin-3-yl)-5-chloro-3-(2-(dimethylamino)ethoxy) thiophene-2-carboxamide], the IC50 was determined as 1 nM.

On to `CN(C)CCOc1cc(Cl)sc1C(=O)N[C@@H]1CCCN(c2cc(-c3ccc(C#N)c(F)c3)n3ncnc(N)c23)C1` [Example 279, (R)-N-(1-(4-amino-7-(4-cyano-3-fluorophenyl)pyrrolo[2,1-f][1,2,4]triazin-5-yl)piperidin-3-yl)-5-chloro-3-(2-(dimethylamino)ethoxy) thiophene-2-carboxamide], for which the IC50 came out at 3 nM.

Take `CN(C)CCOc1cc(Cl)sc1C(=O)N[C@@H]1CCCN(c2cc(-c3ccnc(C#N)c3)n3ncnc(N)c23)C1` [Example 280, (R)-N-(1-(4-amino-7-(2-cyanopyridin-4-yl)pyrrolo[2,1-f][1,2,4]triazin-5-yl)piperidin-3-yl)-5-chloro-3-(2-(dimethylamino)ethoxy) thiophene-2-carboxamide]: the IC50 came out at 2 nM.

`CN(C)CCOc1cc(Cl)sc1C(=O)N[C@@H]1CCCN(c2cc(-c3ccc(=O)n(CC(F)F)c3)n3ncnc(N)c23)C1` [Example 281, (R)-N-(1-(4-amino-7-(1-(2,2-difluoroethyl)-6-oxo-1,6-dihydropyridin-3-yl)pyrrolo[2,1-f][1,2,4]triazin-5-yl)piperidin-3-yl)-5-chloro-3-(2-(dimethylamino)ethoxy) thiophene-2-carboxamide]: the IC50 worked out at 4 nM.

As to `CN(C)CCOc1cc(Cl)sc1C(=O)N[C@@H]1CCCN(c2cc(-c3cccc(C=O)c3)n3ncnc(N)c23)C1` [Example 283, (R)-N-(1-(4-amino-7-(3-formylphenyl)pyrrolo[2,1-f][1,2,4]triazin-5-yl)piperidin-3-yl)-5-chloro-3-(2-(dimethylamino)ethoxy) thiophene-2-carboxamide], the IC50 is 6 nM.

As for `COC(=O)N1CC=C(c2cc(N3CCC[C@@H](NC(=O)c4sc(Cl)cc4OCCN4CCC(F)(F)CC4)C3)c3c(N)ncnn23)C1` [Example 284, methyl (R)-3-(4-amino-5-(3-(5-chloro-3-(2-(4,4-difluoropiperidin-1-yl)ethoxy)thiophene-2-carboxamido)piperidin-1-yl)pyrrolo[2,1-f][1,2,4]triazin-7-yl)-2,5-dihydro-1H-pyrrole-1-carboxylate], the IC50 is 18 nM.

On to `COC(=O)N1CC=C(c2cc(N3CCC[C@@H](NC(=O)c4sc(Cl)cc4OCCN4CCC(F)(F)C4)C3)c3c(N)ncnn23)C1` [Example 285, Methyl (R)-3-(4-amino-5-(3-(5-chloro-3-(2-(3,3-difluoropyrrolidin-1-yl)ethoxy)thiophene-2-carboxamido)piperidin-1-yl)pyrrolo[2,1-f][1,2,4]triazin-7-yl)-2,5-dihydro-1H-pyrrole-1-carboxylate], for which the IC50 was 17 nM.

Take `COC(=O)N1CC=C(c2cc(N3CCC[C@@H](NC(=O)c4sc(Cl)cc4OCCN4CCOC(C)C4)C3)c3c(N)ncnn23)C1` (stereo partly drawn) [Example 286, Methyl 3-(4-amino-5-((3R)-3-(5-chloro-3-(2-(2-methylmorpholino)ethoxy)thiophene-2-carboxamido)piperidin-1-yl)pyrrolo[2,1-f] [1,2,4]triazin-7-yl)-2,5-dihydro-1H-pyrrole-1-carboxylate]: the IC50 came to 23 nM.

As for `COC(=O)N1CC=C(c2cc(N3CCC[C@@H](NC(=O)c4sc(Cl)cc4OCCN4C[C@@H](C)O[C@@H](C)C4)C3)c3c(N)ncnn23)C1` [Example 287, Methyl 3-(4-amino-5-((R)-3-(5-chloro-3-(2-((2S,6R)-2,6-dimethylmorpholino)ethoxy)thiophene-2-carboxamido)piperidin-1-yl)pyrrolo[2,1-f] [1,2,4]triazin-7-yl)-2,5-dihydro-1H-pyrrole-1-carboxylate], the IC50 was found to be 22 nM.

For `COC(=O)N1CC=C(c2cc(N3CCC[C@@H](NC(=O)c4sc(Cl)cc4OCCN4CC(F)(F)C4)C3)c3c(N)ncnn23)C1` [Example 288, Methyl (R)-3-(4-amino-5-(3-(5-chloro-3-(2-(3,3-difluoroazetidin-1-yl)ethoxy)thiophene-2-carboxamido)piperidin-1-yl)pyrrolo[2,1-f][1,2,4]triazin-7-yl)-2,5-dihydro-1H-pyrrole-1-carboxylate], the IC50 is 16 nM.

As for `COC(=O)N1CC=C(c2cc(N3CCC[C@@H](NC(=O)c4sc(Cl)cc4OCCN4CC5(COC5)C4)C3)c3c(N)ncnn23)C1` [Example 289, Methyl (R)-3-(5-(3-(3-(2-(2-oxa-6-azaspiro[3.3]heptan-6-yl)ethoxy)-5-chlorothiophene-2-carboxamido)piperidin-1-yl)-4-aminopyrrolo[2,1-f][1,2,4]triazin-7-yl)-2,5-dihydro-1H-pyrrole-1-carboxylate], the IC50 was found to be 14 nM.

For `COC(=O)N1CC=C(c2cc(N3CCC[C@@H](NC(=O)c4sc(Cl)cc4OCCN4CC(OC)C4)C3)c3c(N)ncnn23)C1` [Example 290], the IC50 was 21 nM.

On to `COC(=O)N1CC=C(c2cc(N3CCC[C@@H](NC(=O)c4sc(Cl)cc4OCCN4CCS(=O)(=O)CC4)C3)c3c(N)ncnn23)C1` [Example 291, Methyl (R)-3-(4-amino-5-(3-(5-chloro-3-(2-(1,1-dioxidothiomorpholino)ethoxy)thiophene-2-carboxamido)piperidin-1-yl)pyrrolo[2,1-f] [1,2,4]triazin-7-yl)-2,5-dihydro-1H-pyrrole-1-carboxylate], for which the IC50 stood at 8 nM.

Take `COC(=O)N1CC=C(c2cc(N3CCC[C@@H](NC(=O)c4sc(Cl)cc4OCCN4CCCC4)C3)c3c(N)ncnn23)C1` [Example 292, Methyl (R)-3-(4-amino-5-(3-(5-chloro-3-(2-(pyrrolidin-1-yl)ethoxy)thiophene-2-carboxamido)piperidin-1-yl)pyrrolo[2,1-f] [1,2,4]triazin-7-yl)-2,5-dihydro-1H-pyrrole-1-carboxylate]: the IC50 came out at 10 nM.

Regarding `Nc1ncnn2c(-c3ccnc(C(F)F)c3)cc(N3CCC[C@@H](NC(=O)c4sc(Cl)cc4OCCN4CCC(F)(F)CC4)C3)c12` [Example 293, (R)-N-(1-(4-amino-7-(2-(difluoromethyl)pyridin-4-yl)pyrrolo[2,1-f][1,2,4]triazin-5-yl)piperidin-3-yl)-5-chloro-3-(2-(4,4-difluoropiperidin-1-yl)ethoxy)thiophene-2-carboxamide], the IC50 was determined as 9 nM.

For the compound `Nc1ncnn2c(-c3ccnc(C(F)F)c3)cc(N3CCC[C@@H](NC(=O)c4sc(Cl)cc4OCCN4CCC(F)(F)C4)C3)c12` [Example 294, (R)-N-(1-(4-amino-7-(2-(difluoromethyl)pyridin-4-yl)pyrrolo[2,1-f][1,2,4]triazin-5-yl)piperidin-3-yl)-5-chloro-3-(2-(3,3-difluoropyrrolidin-1-yl)ethoxy)thiophene-2-carboxamide], the IC50 came out at 7 nM.

For `CC1CN(CCOc2cc(Cl)sc2C(=O)N[C@@H]2CCCN(c3cc(-c4ccnc(C(F)F)c4)n4ncnc(N)c34)C2)CCO1` (stereo partly drawn) [Example 295, N-((R)-1-(4-amino-7-(2-(difluoromethyl)pyridin-4-yl)pyrrolo[2,1-f][1,2,4]triazin-5-yl)piperidin-3-yl)-5-chloro-3-(2-(2-methylmorpholino)ethoxy) thiophene-2-carboxamide], the IC50 stood at 7 nM.

On to `C[C@@H]1CN(CCOc2cc(Cl)sc2C(=O)N[C@@H]2CCCN(c3cc(-c4ccnc(C(F)F)c4)n4ncnc(N)c34)C2)C[C@H](C)O1` [Example 296, N-((R)-1-(4-amino-7-(2-(difluoromethyl)pyridin-4-yl)pyrrolo[2,1-f][1,2,4]triazin-5-yl)piperidin-3-yl)-5-chloro-3-(2-((25,6R)-2,6-dimethylmorpholino)ethoxy)thiophone-2-carboxamide], for which the IC50 worked out at 12 nM.

Regarding `Nc1ncnn2c(-c3ccnc(C(F)F)c3)cc(N3CCC[C@@H](NC(=O)c4sc(Cl)cc4OCCN4CC(F)(F)C4)C3)c12` [Example 297], the IC50 worked out at 19 nM.

For `CC(=O)N1CC=C(c2cc(N3CCC[C@@H](NC(=O)c4sc(Cl)cc4OCCN4CCNCC4)C3)c3c(N)ncnn23)C1` [Example 298, (R)-N-(1-(7-(1-acetyl-2,5-dihydro-1H-pyrrol-3-yl)-4-aminopyrrolo[2,1-f][1,2,4]triazin-5-yl)piperidin-3-yl)-5-chloro-3-(2-(piperazin-1-yl)ethoxy)thiophene-2-carboxamide], the IC50 came out at 14 nM.

`CC(=O)N1CC=C(c2cc(N3CCC[C@@H](NC(=O)c4sc(Cl)cc4OCCN4CCC(C)(O)CC4)C3)c3c(N)ncnn23)C1` [Example 299, (R)-N-(1-(7-(1-acetyl-2,5-dihydro-1H-pyrrol-3-yl)-4-aminopyrrolo[2,1-f][1,2,4]triazin-5-yl)piperidin-3-yl)-5-chloro-3-(2-(4-hydroxy-4-methylpiperidin-1-yl)ethoxy)thiophene-2-carboxamide]: the IC50 was determined as 7 nM.

(Values after patent US20260250290A1 (BRISTOL-MYERS SQUIBB COMPANY, priority 2023, published 2026).)
